# Laboratory results: paper PMC8752738, “A propolis-derived small molecule ameliorates metabolic syndrome in obese mice by targeting the CREB/CRTC2 transcriptional complex” (Nature Communications, 2022)
# “And” between values parts separate entries of the source, which are not always exact repeats. Equal entries are not always repeated.
# What was measured:
# Daily food intake = format: in vivo, mouse; conditions: for foodintake in DIO, mean / foodintake in DIO: DIO mice; for foodintake in DIO, mean: group mean, n=6; for foodintake in DIO: individual values; for foodintake of db/db: single animals; for foodintake of db/db, group mean: mean of APC group, N=5
# [1] = Histological analysis of liver and adipose tissue; format: in vivo, mouse; conditions: DIO and db/db mice, 20 mg/kg, 5 weeks
# Protocol: Fig. 5 APC improves hyperlipidemia of obese mice. DIO mice were continuously i.p. injected with control vehicle or APC with indicated doses (APC, 0, 10, and 20 mg/kg) or vehicle (Ctrl) one time daily for 5 weeks (n = 5–9). a Body-weight curves of these mice (left). Area under curve (AUC) analysis of curves is shown as a scatter chart at the right. […] Data are represented as mean ± SEM. *P < 0.05; **P < 0.01; P values were determined by one-way ANOVA followed Dunnett’s multiple comparisons test. The triglyceride (TG) contents in the serum (c) and liver (d) of these mice. The contents of (e) total cholesterol (TC), LDL cholesterol (LDL-C), and HDL cholesterol (HDL-C), (f) VLDL-C, and (g) nonesterified fatty acid (NEFA) in the serum of these mice. h The contents of hepatic NEFA and (i) glycerol in these mice, which were normalized by hepatic protein levels as determined by BCA assay. Data are represented as mean ± SEM (n = 5–6). *P < 0.05; **P < 0.01; P values were determined by one-way ANOVA followed Dunnett’s multiple comparisons test. j Histological analysis of liver and epididymis fat (WAT) from DIO mice treated with APC (20 mg/kg) or vehicle for 5 weeks. Tissues were stained with hematoxylin and eosin. Scale bars represent 100 μm. […]
# AMPK = assay: Phospho-AMPK immunoblot in primary hepatocytes; format: cell-based, mouse; conditions: for relative p-AMPK protein, mean: N=3 (0 μM = 1); for relative p-AMPK protein: Supp. fig.3e, individual replicates
# Protocol: Immunoblotting and immunoprecipitation assays were performed as previously described, with antibodies recognizing CREB, Ser133-P-CREB, AMPK, P-AMPK, AKT, P-AKT (Cell Signaling), PGC-1α (Merck), CRTC2 (Calbiochem), PCK1 (Santa Cruz), SREBP1 (Santa Cruz), SREBP2 (BD), HA (Convance), LXRα (Santa Cruz), FLAG (Sigma), GST (Covance), HIS (Abmart), GAPDH (AOGMA), α-TUBULIN (Abmart), β-ACTIN (Abmart), and other antibodies (Supplementary Table 3). For immunostaining assays, primary cultured hepatocytes seeded on coverslips were fixed with 4% paraformaldehyde for 20 min, permeabilized with 0.3% Triton X-100 in PBS, and then blocked by 5% normal goat serum and 0.3% Triton X-100 in PBS, followed by incubation with anti-CREB (1:1000), anti-P-CREB (1:1000), or anti-HA (1:3000) antibodies for 1 h at 4 °C. Slides were then washed, and after washing, slides were incubated with fluorochrome-conjugated secondary antibodies (Invitrogen). Slides were then washed and mounted with Vectashield mounting media containing 4, 6-diamidino-2-phenylindole (DAPI).
# 1 Supplementary Figure 3. APC inhibits gluconeogenesis independent of CREB-phosphorylation,
# 2 cell toxin or AMPK activation. […]
# 20 e) Phosphate-AMPK level in primary hepatocytes incubated with APC or metformin (MET) at
# 21 indicated concentrations (0–200 μM) for 30 minutes (top). Relative P-AMPK normalized by AMPK is […]
# FGF21 = assay: Immunoblotting of plasma and liver FGF21; format: in vivo, mouse
# Protocol: 1 Supplementary Figure 10. A57 is novel inhibitor of the CREB/CRTC2 protein complex. […]
# 20 e) Immunoblotting of plasma and liver FGF21 protein in Crtc2KO mice, which induced by a high
# 21 fat diet for 13 weeks then orally administered APC (20 mg/kg), A57 (20 mg/kg) or vehicle (VEH) for
# 1 3 weeks. Two technological repeats present a composite pool including 5 mice per group. One
# 2 representative result from three-independent experiments is shown here.
# 3 f) Relative plasma FGF21 (top) and liver FGF21 (bottom), normalized by R250 signaling or
# 4 ACTIN respectively, is shown here as a bar graph. Data are represented as mean ± SEM (n=5 per
# 5 group, two technological repeats present a composite pool). ns, p > 0.05; *, p < 0.05; **, p < 0.01; p
# 7 for this figure are provided as a Source data file.
# [2] = 200 μM (first of two lines printed 200)
# [3] = 200 μM (second of two lines printed 200)
compound,measurement,setting,value
"CC(C)=CCc1cc(C=CC(=O)O)cc(CC=C(C)C)c1O [APC, 3,5-diprenyl-4-hydroxycinnamic acid]","foodintake in DIO, mean",Daily food intake; APC 10mg/kg,3.935 g/mouse/day
same,foodintake in DIO,Daily food intake; APC 10mg/kg,3.44 g/mouse/day and 4.55 g/mouse/day and 3.83 g/mouse/day and 3.87 g/mouse/day and 4.39 g/mouse/day and 3.53 g/mouse/day
same,"foodintake in DIO, mean",Daily food intake; APC 20mg/kg,3.517 g/mouse/day
same,foodintake in DIO,Daily food intake; APC 20mg/kg,3.89 g/mouse/day and 3.58 g/mouse/day and 3.67 g/mouse/day and 3.06 g/mouse/day and 3.73 g/mouse/day and 3.17 g/mouse/day
same,foodintake of db/db,"Daily food intake; db/db mice, day 1",6.30 g/per mouse/24h and 5.90 g/per mouse/24h and 7.80 g/per mouse/24h and 7.20 g/per mouse/24h and 6.43 g/per mouse/24h
same,"foodintake of db/db, group mean","Daily food intake; db/db mice, day 2",6.34 g/per mouse/24h
same,foodintake of db/db,"Daily food intake; db/db mice, day 2",5.90 g/per mouse/24h and 6.90 g/per mouse/24h and 7.10 g/per mouse/24h and 7.50 g/per mouse/24h and 6.30 g/per mouse/24h
same,"foodintake of db/db, group mean","Daily food intake; db/db mice, day 3",6.44 g/per mouse/24h
same,foodintake of db/db,"Daily food intake; db/db mice, day 3",6.10 g/per mouse/24h and 7.30 g/per mouse/24h and 5.80 g/per mouse/24h and 7.20 g/per mouse/24h and 6.20 g/per mouse/24h
same,"foodintake of db/db, group mean","Daily food intake; db/db mice, day 4",6.5 g/per mouse/24h
same,foodintake of db/db,"Daily food intake; db/db mice, day 4",7.40 g/per mouse/24h and 6.30 g/per mouse/24h (2×) and 6.20 g/per mouse/24h and 5.90 g/per mouse/24h
same,"foodintake of db/db, group mean","Daily food intake; db/db mice, day 5",6.68 g/per mouse/24h
same,foodintake of db/db,"Daily food intake; db/db mice, day 5",5.70 g/per mouse/24h and 7.20 g/per mouse/24h and 6.80 g/per mouse/24h and 7.90 g/per mouse/24h and 5.80 g/per mouse/24h
same,"foodintake of db/db, group mean","Daily food intake; db/db mice, day 6",6.9 g/per mouse/24h
same,foodintake of db/db,"Daily food intake; db/db mice, day 6",8.00 g/per mouse/24h and 6.80 g/per mouse/24h and 6.10 g/per mouse/24h and 7.20 g/per mouse/24h and 6.40 g/per mouse/24h
same,"foodintake of db/db, column mean over days 1-6","Daily food intake; db/db mice, Mean of APC, two-way RM ANOVA",6.737 g/per mouse/24h
same,daily food intake,"Daily food intake; obese mice, 2 weeks of APC injection",no significant effects
same,sizes of lipid droplets in liver and adipose tissues,[1],remarkably reduced
same,"relative p-AMPK protein, mean",AMPK; 5 μM,0.9451
same,"relative p-AMPK protein, mean",AMPK; 10 μM,0.8939
same,"relative p-AMPK protein, mean",AMPK; 100 μM,0.906
same,"relative p-AMPK protein, mean",AMPK; [2],0.9865
same,"relative p-AMPK protein, mean",AMPK; [3],1.094
same,relative p-AMPK protein,AMPK; 5 μM,1.019 and 0.9566 and 0.8598
same,relative p-AMPK protein,AMPK; 10 μM,0.8723 and 0.8495 and 0.96
same,relative p-AMPK protein,AMPK; 100 μM,0.9495 and 0.9349 and 0.8336
same,relative p-AMPK protein,AMPK; [2],0.9904 and 0.9893 and 0.9798
same,relative p-AMPK protein,AMPK; [3],1.017 and 1.161 and 1.105
same,"relative p-AMPK protein, column mean","AMPK; mean over all concentrations, 0 μM included",0.971
same,phosphorylation of AMPK,"AMPK; primary hepatocytes, up to 200 μM",did not induce phosphorylation of AMPK
same,plasma and liver FGF21,"FGF21; Crtc2KO mice, oral 20 mg/kg, 3 weeks",did not further increase
same,"liver FGF21 in CRTC2, group mean (Mean 2)","FGF21; Supp. Fig.10 f down, CRTC2KO mice, n=3, VEH mean 2.47",2.579
same,Bands density of FGF21 in the liver,"FGF21; Supp. Fig.10 f down, CT2KO (CRTC2KO) mice, oral, individual replicates, Veh about 2.47",2.47 and 2.45 and 2.816
same,"Bands density, plasma FGF21 in CRTC2","FGF21; Supp. Fig.10 f up, CRTC2KO mice, individual replicates, VEH about 2.31",2.4404 and 2.52 and 2.451
same,"Bands density, plasma FGF21 in CRTC2, group mean (Mean 2)","FGF21; Supp. Fig.10 f up, CRTC2KO mice, n=3, VEH mean 2.31",2.47
